US10959432B2, “Microbiocidal oxadiazole derivatives” (Syngenta Participations AG, priority 2016, dated 2021)
Read-outs that look alike come from different tables or passages of the source.

Key:
[1] = tested on: Puccinia recondita f. sp. tritici; experiment: Fungicidal activity against Puccinia recondita f. sp. tritici / wheat / leaf disc preventative (brown rust); type: in vivo; settings: foliar, 200 ppm in the applied formulation, wheat leaf segments cv. Kanzler, preventative (inoculated 1 day after application), assessed 7 to 9 days after application, read-out: disease control compared to untreated control leaf disks
Method: (§1) Leaf disks or leaf segments of various plant species are cut from plants grown in a greenhouse. The cut leaf disks or segments are placed in multiwell plates (24-well format) onto water agar. The leaf disks are sprayed with a test solution before (preventative) or after (curative) inoculation. Compounds to be tested are prepared as DMSO solutions (max. 10 mg/ml) which are diluted to the appropriate concentration with 0.025% Tween20 just before spraying. The inoculated leaf disks or segments are incubated under defined conditions (temperature, relative humidity, light, etc.) according to the respective test system. A single evaluation of disease level is carried out 3 to 14 days after inoculation, depending on the pathosystem. Percent disease control relative to the untreated check leaf disks or segments is then calculated. General Examples of Liquid Culture Tests in Well Plates:
Example 1: Fungicidal Activity Against Puccinia recondita f. sp. tritici/Wheat/Leaf Disc Preventative (Brown Rust)
Wheat leaf segments cv. Kanzler were placed on agar in multiwell plates (24-well format) and sprayed with the formulated test compound diluted in water. The leaf disks were inoculated with a spore suspension of the fungus 1 day after application. The inoculated leaf segments were incubated at 19C and 75% relative humidity (rh) under a light regime of 12 hours light/12 hours darkness in a climate cabinet and the activity of a compound was assessed as percent disease control compared to untreated when an appropriate level of disease damage appears in untreated check leaf segments (7 to 9 days after application).
(§2) The following compounds at 200 ppm in the applied formulation give at least 80% disease control in this test when compared to untreated control leaf disks under the same conditions, which show extensive disease development.

Phakopsora pachyrhizi = experiment: Fungicidal activity against Phakopsora pachyrhizi / soybean / leaf disc preventative (Asian soybean rust); type: in vivo; settings: foliar, read-out: disease control compared to untreated control leaf disks
Method: as §1
Example 3: Fungicidal Activity Against Phakopsora pachyrhizi/Soybean/Leaf Disc Preventative (Asian Soybean Rust)
Soybean leaf disks are placed on water agar in multiwell plates (24-well format) and sprayed with the formulated test compound diluted in water. One day after application leaf discs are inoculated by spraying a spore suspension on the lower leaf surface. After an incubation period in a climate cabinet of 24-36 hours in darkness at 20° C. and 75% rh leaf disc are kept at 20° C. with 12 h light/day and 75% rh. The activity of a compound is assessed as percent disease control compared to untreated when an appropriate level of disease damage appears in untreated check leaf disks (12 to 14 days after application).
as §2

[2] = tested on: Glomerella laqenarium (Colletotrichum lagenarium); experiment: Fungicidal activity against Glomerella lagenarium (Colletotrichum lagenarium) liquid culture / cucumber / preventative (anthracnose); type: cell-based; settings: Colletotrichum orbiculare, read-out: disease control compared to untreated control (inhibition of growth measured photometrically)
Method: Mycelia fragments or conidia suspensions of a fungus prepared either freshly from liquid cultures of the fungus or from cryogenic storage, are directly mixed into nutrient broth. DMSO solutions of the test compound (max. 10 mg/ml) are diluted with 0.025% Tween20 by a factor of 50 and 10 μl of this solution is pipetted into a microtiter plate (96-well format). The nutrient broth containing the fungal spores/mycelia fragments is then added to give an end concentration of the tested compound. The test plates are incubated in the dark at 24° C. and 96% relative humidity. The inhibition of fungal growth is determined photometrically after 2 to 7 days, depending on the pathosystem, and percent antifungal activity relative to the untreated check is calculated.
Example 4: Fungicidal Activity Against Glomerella laqenarium (Colletotrichum lagenarium) Liquid Culture/Cucumber/Preventative (Anthracnose)
Conidia of the fungus from cryogenic storage are directly mixed into nutrient broth (PDB—potato dextrose broth). After placing a (DMSO) solution of test compound into a microtiter plate (96-well format), the nutrient broth containing the fungal spores is added. The test plates are incubated at 24° C. and the inhibition of growth is measured photometrically 3 to 4 days after application.
The following compounds at 20 ppm in the applied formulation give at least 80% disease control in this test when compared to untreated control under the same conditions, which show extensive disease development.

[3] = tested on: Puccinia recondita f. sp. tritici; experiment: Fungicidal activity against Puccinia recondita f. sp. tritici / wheat / leaf disc curative (brown rust); type: in vivo; settings: foliar, 200 ppm in the applied formulation, wheat leaf segments cv. Kanzler, curative (applied 1 day after inoculation), assessed 6 to 8 days after application, read-out: disease control compared to untreated control leaf disks
Method: as §1
Example 2: Fungicidal Activity Against Puccinia recondita f. sp. Tritici/Wheat/Leaf Disc Curative (Brown Rust)
Wheat leaf segments cv. Kanzler are placed on agar in multiwell plates (24-well format). The leaf segments are then inoculated with a spore suspension of the fungus. Plates were stored in darkness at 19° C. and 75% relative humidity. The formulated test compound diluted in water was applied 1 day after inoculation. The leaf segments were incubated at 19° C. and 75% relative humidity under a light regime of 12 hours light/12 hours darkness in a climate cabinet and the activity of a compound was assessed as percent disease control compared to untreated when an appropriate level of disease damage appears in untreated check leaf segments (6 to 8 days after application).
as §2

[4] = 200 ppm in the applied formulation, soybean leaf disks, preventative (inoculated one day after application), assessed 12 to 14 days after application
[5] = 20 ppm in the applied formulation, liquid culture in PDB, 24° C., 3 to 4 days after application

Row | Structure (SMILES) | pest or weed control at 200 ppm (Phakopsora pachyrhizi; [4]) | inhibition at 20 ppm [2, 5] | other results
1 | CN(C(=O)c1ccc(-c2noc(C(F)(F)F)n2)cc1)C1CCN(C(=O)OC(C)(C)C)C1 (stereo not shown) [Compound 1a.1, tert-butyl 3-[methyl-[4-[5-(trifluoromethyl)-1,2,4-oxadiazol-3-yl]benzoyl]amino]pyrrolidine-1-carboxylate] | ≥ 80% | ≥ 80% | pest or weed control at 200 ppm [1]: ≥ 80%
2 | CCCN(CC1CC1)C(=O)c1ccc(-c2noc(C(F)(F)F)n2)cc1 [Compound 2a.1, N-(cyclopropylmethyl)-N-propyl-4-[5-(trifluoromethyl)-1,2,4-oxadiazol-3-yl]benzamide] | ≥ 80% | ≥ 80% | 
3 | CC(C#N)(NC(=O)c1ccc(-c2noc(C(F)(F)F)n2)cc1F)C1CC1 (stereo not shown) [Compound 2b.9, N-(1-cyano-1-cyclopropyl-ethyl)-2-fluoro-4-[5-(trifluoromethyl)-1,2,4-oxadiazol-3-yl]benzamide] | ≥ 80% |  | pest or weed control at 200 ppm [1]: ≥ 80%; pest or weed control at 200 ppm [3]: ≥ 80%
4 | CN(CCCO)C(=O)c1ccc(-c2noc(C(F)(F)F)n2)cc1 [Compound 3a.6, N-(3-hydroxypropyl)-N-methyl-4-[5-(trifluoromethyl)-1,2,4-oxadiazol-3-yl]benzamide] | ≥ 80% |  | pest or weed control at 200 ppm [3]: ≥ 80%
5 | CN(CC(C)(C)CO)C(=O)c1ccc(-c2noc(C(F)(F)F)n2)cc1 [Compound 3a.8, N-(3-hydroxy-2,2-dimethyl-propyl)-N-methyl-4-[5-(trifluoromethyl)-1,2,4-oxadiazol-3-yl]benzamide] | ≥ 80% | ≥ 80% | 
6 | CC(CCO)NC(=O)c1ccc(-c2noc(C(F)(F)F)n2)cc1 (stereo not shown) [Compound 3a.15, N-(3-hydroxy-1-methyl-propyl)-4-[5-(trifluoromethyl)-1,2,4-oxadiazol-3-yl]benzamide] | ≥ 80% |  | pest or weed control at 200 ppm [3]: ≥ 80%
7 | CN(CCCCO)C(=O)c1ccc(-c2noc(C(F)(F)F)n2)cc1 [Compound 3a.19, N-(4-hydroxybutyl)-N-methyl-4-[5-(trifluoromethyl)-1,2,4-oxadiazol-3-yl]benzamide] | ≥ 80% |  | 
8 | O=C(NCCCCCO)c1ccc(-c2noc(C(F)(F)F)n2)cc1 [Compound 3a.21, N-(5-hydroxypentyl)-4-[5-(trifluoromethyl)-1,2,4-oxadiazol-3-yl]benzamide] | ≥ 80% |  | pest or weed control at 200 ppm [3]: ≥ 80%
9 | CC(C)CN(CC(C)C)C(=O)c1ccc(-c2noc(C(F)(F)F)n2)cc1 [Compound 3a.23, N,N-diisobutyl-4-[5-(trifluoromethyl)-1,2,4-oxadiazol-3-yl]benzamide] | ≥ 80% | ≥ 80% | 
10 | CCCCN(CCO)C(=O)c1ccc(-c2noc(C(F)(F)F)n2)cc1 [Compound 3a.25, N-butyl-N-(2-hydroxyethyl)-4-[5-(trifluoromethyl)-1,2,4-oxadiazol-3-yl]benzamide] | ≥ 80% | ≥ 80% | 
11 | CCOC(=O)CC(C)NC(=O)c1ccc(-c2noc(C(F)(F)F)n2)cc1 (stereo not shown) [Compound 3a.26, ethyl 3-[[4-[5-(trifluoromethyl)-1,2,4-oxadiazol-3-yl]benzoyl]amino]butanoate] | ≥ 80% | ≥ 80% | pest or weed control at 200 ppm [1]: ≥ 80%
12 | CCCCCCNC(=O)c1ccc(-c2noc(C(F)(F)F)n2)cc1 [Compound 3a.29, N-hexyl-4-[5-(trifluoromethyl)-1,2,4-oxadiazol-3-yl]benzamide] |  |  | pest or weed control at 200 ppm (Phakopsora pachyrhizi): ≥ 80%; inhibition at 20 ppm [2]: ≥ 80%
13 | CCC(CC)CNC(=O)c1ccc(-c2noc(C(F)(F)F)n2)cc1 [Compound 3a.39, N-(2-ethylbutyl)-4-[5-(trifluoromethyl)-1,2,4-oxadiazol-3-yl]benzamide] | ≥ 80% | ≥ 80% | 
14 | CC(C)(CCO)NC(=O)c1ccc(-c2noc(C(F)(F)F)n2)cc1 [Compound 3a.42, N-(3-hydroxy-1,1-dimethyl-propyl)-4-[5-(trifluoromethyl)-1,2,4-oxadiazol-3-yl]benzamide] | ≥ 80% |  | 
15 | CN(CCCO)C(=O)c1ccc(-c2noc(C(F)(F)F)n2)cc1F [Compound 3b.9, 2-fluoro-N-(3-hydroxypropyl)-N-methyl-4-[5-(trifluoromethyl)-1,2,4-oxadiazol-3-yl]benzamide] | ≥ 80% |  | pest or weed control at 200 ppm [3]: ≥ 80%
16 | COCCN(C(=O)c1ccc(-c2noc(C(F)(F)F)n2)cc1F)C(C)C [Compound 3b.13, 2-fluoro-N-isopropyl-N-(2-methoxyethyl)-4-[5-(trifluoromethyl)-1,2,4-oxadiazol-3-yl]benzamide] | ≥ 80% | ≥ 80% | 
17 | CC(CCO)NC(=O)c1ccc(-c2noc(C(F)(F)F)n2)cc1F (stereo not shown) [Compound 3b.17, 2-fluoro-N-(3-hydroxy-1-methyl-propyl)-4-[5-(trifluoromethyl)-1,2,4-oxadiazol-3-yl]benzamide] | ≥ 80% |  | pest or weed control at 200 ppm [3]: ≥ 80%
18 | CN(CCO)C(=O)c1ccc(-c2noc(C(F)(F)F)n2)cc1F [Compound 3b.25, 2-fluoro-N-(2-hydroxyethyl)-N-methyl-4-[5-(trifluoromethyl)-1,2,4-oxadiazol-3-yl]benzamide] | ≥ 80% |  | 
19 | O=C(NCCCCO)c1ccc(-c2noc(C(F)(F)F)n2)cc1F [Compound 3b.26, 2-fluoro-N-(4-hydroxybutyl)-4-[5-(trifluoromethyl)-1,2,4-oxadiazol-3-yl]benzamide] | ≥ 80% | ≥ 80% | pest or weed control at 200 ppm [1]: ≥ 80%
20 | CCC(CC)CNC(=O)c1ccc(-c2noc(C(F)(F)F)n2)cc1F [Compound 3b.42, N-(2-ethylbutyl)-2-fluoro-4-[5-(trifluoromethyl)-1,2,4-oxadiazol-3-yl]benzamide] | ≥ 80% |  | 
21 | Cc1cc(C#N)c(NC(=O)c2ccc(-c3noc(C(F)(F)F)n3)cc2)s1 [Compound 5a.1, N-(3-cyano-5-methyl-2-thienyl)-4-[5-(trifluoromethyl)-1,2,4-oxadiazol-3-yl]benzamide] | ≥ 80% |  | 
22 | O=C(Nc1cn[nH]c1)c1ccc(-c2noc(C(F)(F)F)n2)cc1 [Compound 5a.3, N-(1H-pyrazol-4-yl)-4-[5-(trifluoromethyl)-1,2,4-oxadiazol-3-yl]benzamide] | ≥ 80% |  | 
23 | COC1=NS(C)=NC(N(C)C(=O)c2ccc(-c3noc(C(F)(F)F)n3)cc2F)=N1 (stereo not shown) [Compound 5b.8, 2-fluoro-N-(5-methoxy-1-methyl-1-thia-2,4,6-triazacyclohexa-2,4,6-trien-3-yl)-N-methyl-4-[5-(trifluoromethyl)-1,2,4-oxadiazol-3-yl]benzamide] | ≥ 80% |  | 
